Laboratory results from PubChem BioAssay AID248 (DTP/NCI, 2004).
Toxic doses and inconclusive results are not listed. No stated cut-off is given here; in the data, active means T/C of 150% or more; inactive means T/C below 125%.

System: L1210 leukemia ip in BDF1 mice, survival T/C
Test: NCI In Vivo Anticancer Drug Screen. Data for tumor model L1210 Leukemia (intraperitoneal) in B6D2F1 (BDF1) mice
Conditions: endpoint: mean survival time, higher = longer survival
Outline: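 Value reflects the ratio of survival in compound-treated mice to survival in vehicle-treated controls, with both groups carrying the same transplanted tumor.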

[1] = dose: 50.0 mg/kg/injection, schedule: Q04DX003 (ip), vehicle: Klucel (hydroxypropylcellulose) (HPC)
[2] = dose: 100.0 mg/kg/injection, schedule: Q04DX003 (ip), vehicle: Klucel (hydroxypropylcellulose) (HPC)
[3] = dose: 200.0 mg/kg/injection, schedule: Q04DX003 (ip), vehicle: Klucel (hydroxypropylcellulose) (HPC)
[4] = dose: 400.0 mg/kg/injection, schedule: Q04DX003 (ip), vehicle: Klucel (hydroxypropylcellulose) (HPC)
[5] = dose: 100.0 mg/kg/injection, schedule: Q01DX009 (ip), vehicle: saline
[6] = dose: 200.0 mg/kg/injection, schedule: Q01DX009 (ip), vehicle: saline
[7] = dose: 25.0 mg/kg/injection, schedule: Q01DX009 (ip), vehicle: saline
[8] = dose: 25.0 mg/kg/injection, schedule: Q04DX003 (ip), vehicle: saline
[9] = dose: 100.0 mg/kg/injection, schedule: Q04DX003 (ip), vehicle: saline
[10] = dose: 100.0 mg/kg/injection, schedule: Q01DX001 (ip), vehicle: Klucel (hydroxypropylcellulose) (HPC)
[11] = dose: 100.0 mg/kg/injection, schedule: Q01DX009 (ip), vehicle: Klucel (hydroxypropylcellulose) (HPC)
[12] = dose: 200.0 mg/kg/injection, schedule: Q01DX009 (ip), vehicle: Klucel (hydroxypropylcellulose) (HPC)

Measured: T/C

CC1=C(C)C2(Cl)C(Cl)=C(Cl)C1(Cl)C2(Cl)Cl
inactive: [1] 96 % of control | [2] 91 % of control | [3] 92 % of control | [4] 96 % of control

OCc1nccn1Cc1ccccc1
inactive: dose: 25.0 mg/kg/injection, schedule: Q01DX009 (ip), vehicle: water 99 % of control | dose: 50.0 mg/kg/injection, schedule: Q01DX009 (ip), vehicle: water 100 % of control | [5] 97 % of control | dose: 100.0 mg/kg/injection, schedule: Q01DX009 (ip), vehicle: water 100 % of control | [6] 108 % of control | dose: 200.0 mg/kg/injection, schedule: Q01DX009 (ip), vehicle: water 106 % of control

CC(C)CCCCCCCCCCCCC(=O)NCC(=O)NC1C(O)C(O)C(Nc2ncnc3nc[nH]c23)OC1C(O)CO (configuration not stated)
inactive: dose: 0.3 mg/kg/injection, schedule: Q## X000 (ip), vehicle: carboxymethylcellulose (CMC) 100 % of control | dose: 0.4 mg/kg/injection, schedule: Q01DX Z (ip), vehicle: carboxymethylcellulose (CMC) 107 % of control | dose: 0.44 mg/kg/injection, schedule: Q## X000 (ip), vehicle: carboxymethylcellulose (CMC) 107 % of control | dose: 0.6 mg/kg/injection, schedule: Q01DX Z (ip), vehicle: carboxymethylcellulose (CMC) 104 % of control | dose: 0.66 mg/kg/injection, schedule: Q## X000 (ip), vehicle: carboxymethylcellulose (CMC) 98 % of control | dose: 0.9 mg/kg/injection, schedule: Q01DX Z (ip), vehicle: carboxymethylcellulose (CMC) 103 % of control | dose: 1.0 mg/kg/injection, schedule: Q01DX001 (ip), vehicle: saline 101 % of control | dose: 1.0 mg/kg/injection, schedule: Q## X000 (ip), vehicle: carboxymethylcellulose (CMC) 110 % of control | dose: 1.35 mg/kg/injection, schedule: Q01DX Z (ip), vehicle: carboxymethylcellulose (CMC) 107 % of control | dose: 2.0 mg/kg/injection, schedule: Q01DX001 (ip), vehicle: saline 98 % of control | dose: 4.0 mg/kg/injection, schedule: Q01DX001 (ip), vehicle: saline 98 % of control | dose: 8.0 mg/kg/injection, schedule: Q01DX001 (ip), vehicle: saline 101 % of control | dose: 12.0 mg/kg/injection, schedule: Q01DX001 (ip), vehicle: saline 105 % of control | dose: 18.0 mg/kg/injection, schedule: Q01DX001 (ip), vehicle: saline 112 % of control | dose: 27.0 mg/kg/injection, schedule: Q01DX001 (ip), vehicle: saline 96 % of control

Cc1cccc2c3c([nH]c12)CCSC3
inactive: dose: 100.0 mg/kg/injection, schedule: Q04DX003 (ip), vehicle: saline with Tween-80 108 % of control | dose: 200.0 mg/kg/injection, schedule: Q04DX003 (ip), vehicle: saline with Tween-80 105 % of control | dose: 400.0 mg/kg/injection, schedule: Q04DX003 (ip), vehicle: saline with Tween-80 111 % of control

O=C(Nc1ccccc1C(F)(F)F)OCCOc1ccccc1Cl
inactive: [2] 92 % of control | [3] 92 % of control | [4] 92 % of control

CCC(C)[Se][Se]C(C)CC (configuration not stated)
inactive: dose: 6.25 mg/kg/injection, schedule: Q01DX009 (ip), vehicle: saline 94 % of control | dose: 6.25 mg/kg/injection, schedule: Q04DX003 (ip), vehicle: saline 97 % of control | dose: 12.5 mg/kg/injection, schedule: Q01DX009 (ip), vehicle: saline 98 % of control | dose: 12.5 mg/kg/injection, schedule: Q04DX003 (ip), vehicle: saline 103 % of control | [7] 91 % of control | [8] 103 % of control | [9] 89 % of control

N#CC1(C#N)C2C=CC(C3C(Cl)C=CC32)C1(C#N)C#N (configuration not stated)
inactive: dose: 12.5 mg/kg/injection, schedule: Q01DX009 (ip), vehicle: saline with Tween-80 87 % of control | dose: 12.5 mg/kg/injection, schedule: Q04DX003 (ip), vehicle: saline with Tween-80 96 % of control | dose: 25.0 mg/kg/injection, schedule: Q01DX009 (ip), vehicle: saline with Tween-80 89 % of control | dose: 25.0 mg/kg/injection, schedule: Q04DX003 (ip), vehicle: saline with Tween-80 94 % of control | dose: 50.0 mg/kg/injection, schedule: Q04DX003 (ip), vehicle: saline with Tween-80 97 % of control

CN(C)CCOC(=O)c1cccc(CCl)c1CCl
inactive: dose: 87.5 mg/kg/injection, schedule: Q01DX009 (ip), vehicle: saline 106 % of control

O=C(O)C1CCC(=O)C2CCCCC12 (configuration not stated)
inactive: dose: 100.0 mg/kg/injection, schedule: Q01DX001 (ip), vehicle: saline 97 % of control | dose: 200.0 mg/kg/injection, schedule: Q01DX001 (ip), vehicle: saline 94 % of control | dose: 400.0 mg/kg/injection, schedule: Q01DX001 (ip), vehicle: saline 95 % of control

Cc1ccc(C(O)(c2ccc(C)cc2)C2C(c3ccccc3)N2C)cc1 (configuration not stated)
inactive: [10] 98 % of control | dose: 200.0 mg/kg/injection, schedule: Q01DX001 (ip), vehicle: Klucel (hydroxypropylcellulose) (HPC) 96 % of control | dose: 400.0 mg/kg/injection, schedule: Q01DX001 (ip), vehicle: Klucel (hydroxypropylcellulose) (HPC) 102 % of control

O=C1C(=O)c2ccccc2-c2ccccc21
inactive: [1] 98 % of control | [2] 97 % of control | [3] 98 % of control

O=C(O)CCSC(=S)Nc1ccccc1O
inactive: dose: 100.0 mg/kg/injection, schedule: Q01DX001 (ip), vehicle: carboxymethylcellulose (CMC) 103 % of control | dose: 200.0 mg/kg/injection, schedule: Q01DX001 (ip), vehicle: carboxymethylcellulose (CMC) 93 % of control | dose: 400.0 mg/kg/injection, schedule: Q01DX001 (ip), vehicle: carboxymethylcellulose (CMC) 98 % of control

Nc1ncnn1C(=O)NCCCl
inactive: [5] 94 % of control | [9] 101 % of control | [6] 97 % of control | dose: 200.0 mg/kg/injection, schedule: Q04DX003 (ip), vehicle: saline 101 % of control | dose: 400.0 mg/kg/injection, schedule: Q01DX009 (ip), vehicle: saline 97 % of control | dose: 400.0 mg/kg/injection, schedule: Q04DX003 (ip), vehicle: saline 101 % of control

CC(=O)CC(=O)Nc1ccc(C(=O)O)c(O)c1
inactive: [11] 93 % of control | [12] 87 % of control | dose: 400.0 mg/kg/injection, schedule: Q01DX009 (ip), vehicle: Klucel (hydroxypropylcellulose) (HPC) 93 % of control

CCOC1OC(c2ccccc2)=NS(=O)(=O)C1(C)C (configuration not stated)
inactive: dose: 100.0 mg/kg/injection, schedule: Q04DX002 (ip), vehicle: Klucel (hydroxypropylcellulose) (HPC) 103 % of control | dose: 200.0 mg/kg/injection, schedule: Q04DX002 (ip), vehicle: Klucel (hydroxypropylcellulose) (HPC) 106 % of control | dose: 400.0 mg/kg/injection, schedule: Q04DX002 (ip), vehicle: Klucel (hydroxypropylcellulose) (HPC) 103 % of control

O=C(Nc1ccc(F)cc1)Nc1cc(C(F)(F)F)ccc1Cl
inactive: dose: 50.0 mg/kg/injection, schedule: Q01DX009 (ip), vehicle: Klucel (hydroxypropylcellulose) (HPC) 107 % of control | [11] 92 % of control | [12] 92 % of control

CC1(C)N=C(N)N=C(N)N1c1cc(Cl)ccc1Cl
inactive: dose: 12.0 mg/kg/injection, schedule: Q04DX003 (ip), vehicle: saline 117 % of control | dose: 12.5 mg/kg/injection, schedule: Q01DX001 (ip), vehicle: saline 98 % of control | dose: 25.0 mg/kg/injection, schedule: Q01DX001 (ip), vehicle: saline 90 % of control | [7] 101 % of control | [8] 100 % of control | dose: 50.0 mg/kg/injection, schedule: Q01DX001 (ip), vehicle: saline 98 % of control | dose: 50.0 mg/kg/injection, schedule: Q01DX009 (ip), vehicle: saline 97 % of control | dose: 50.0 mg/kg/injection, schedule: Q04DX003 (ip), vehicle: saline 103 % of control

O=S1(=O)CCCO1
inactive: dose: 100.0 mg/kg/injection, schedule: Q01DX009 (ip), vehicle: other 103 % of control | dose: 200.0 mg/kg/injection, schedule: Q01DX009 (ip), vehicle: other 109 % of control

Nc1cccc(CSc2nc3nc[nH]c3c(=O)[nH]2)c1
inactive: dose: 25.0 mg/kg/injection, schedule: Q01DX001 (ip), vehicle: Klucel (hydroxypropylcellulose) (HPC) 102 % of control | dose: 50.0 mg/kg/injection, schedule: Q01DX001 (ip), vehicle: Klucel (hydroxypropylcellulose) (HPC) 100 % of control | [10] 102 % of control

CC(=O)C(CCS(C)(=O)=O)(CCS(C)(=O)=O)C(=O)O
inactive: [2] 107 % of control | [3] 94 % of control | [4] 103 % of control
